Test results published in the supplement of paper PMC7661543.
± gives the standard deviation of the averaged measurements.

System: SKBR3
Test: relative cell number vs DMSO control (72 h) (% of DMSO); higher = less growth inhibition (more cells)
Settings: sgRNA knockout: sgNT, 1000 nM
Experimental: (§1)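 QMAP-Seq: a pool of 5 breast cancer cell lines (ZR-75-1, SKBR3, HCC-38, MDA-MB-231, BT-20), each carrying 12 doxycycline-inducible Cas9 sgRNA perturbations (11 knockouts plus non-targeting sgNT), was treated with compounds for 72 h at four 10-fold doses (10 nM-10 uM or 1 nM-1 uM range). Barcodes were amplified and sequenced, and cell number was interpolated from 293T spike-in standard curves. The result is expressed as % of the median of DMSO wells. Two biological replicates.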

Compound | relative cell number
Cn1nnc2c(C(N)=O)ncn2c1=O [Temozolomide] | 104 ± 27
CN(C)C(=O)c1ccc(S(=O)(=O)c2ccc(NC(=O)[C@@](C)(O)C(F)(F)F)c(Cl)c2)cc1 [AZD7545] | 95.8 ± 11
CC(C)(C#N)c1ccc(N2C(=O)OCc3cnc4ccc(-c5cnc6ccccc6c5)cc4c32)cc1 | 79.39 ± 0.72
CC(C)C[C@@H](C=O)NC(=O)[C@H](CC(C)C)NC(=O)[C@H](CC(C)C)NC(=O)OCc1ccccc1 [MG132] | 14 ± 1.8
C[C@@H](Oc1cc(-c2cnn(C3CCNCC3)c2)cnc1N)c1c(Cl)ccc(F)c1Cl [Crizotinib] | 88.6 ± 8.4
CN1CCN(c2ccc(C(=O)Nc3n[nH]c4ccc(Cc5cc(F)cc(F)c5)cc34)c(NC3CCOCC3)c2)CC1 [Entrectinib] | 95 ± 19
CC(C)(C)c1cnc(CSc2cnc(NC(=O)C3CCNCC3)s2)o1 [SNS032] | 7.96 ± 5
Nc1ccn([C@@H]2O[C@H](CO)[C@@H](O)C2(F)F)c(=O)n1 [Gemcitabine] | 11.1 ± 5.8
CCCS(=O)(=O)Nc1ccc(F)c(C(=O)c2c[nH]c3ncc(Cl)cc23)c1F [PLX4720] | 93.3 ± 14
CC[C@H](Nc1ncnc2[nH]cnc12)c1nc2cccc(F)c2c(=O)n1-c1ccccc1 [CAL101] | 87.3 ± 49
COc1nc(N)nc2c1ncn2[C@@H]1O[C@H](CO)[C@@H](O)[C@@H]1O [Nelarabine] | 101 ± 6.9
COc1cc(-n2c(=S)[nH]c3ccccc3c2=O)c(Cl)cc1Cl [Mdivi1] | 60 ± 1.5
CCOC(=O)c1ccc(N2NC(=O)C(=Cc3ccc([N+](=O)[O-])o3)C2=O)cc1 [PYR41] | 98.3 ± 18

Same assay, conditions: sgRNA knockout: sgNT, 10000 nM

Compound | relative cell number
COC(=O)[C@]12CCC(C)(C)C[C@H]1[C@H]1C(=O)C=C3[C@@]4(C)C=C(C#N)C(=O)C(C)(C)[C@@H]4CC[C@@]3(C)[C@]1(C)CC2 [BardoxoloneMethyl] | 4.14 ± 0.45
Cc1sc2c(c1C)C(c1ccc(Cl)cc1)=N[C@@H](CC(=O)OC(C)(C)C)c1nnc(C)n1-2 [(+)-JQ1] | 62.6 ± 3.5
CCOC(=O)CCNc1cc(N2CCc3ccccc3CC2)nc(-c2ccccn2)n1 [GSKJ4] | 88.8 ± 34
O=C1NC(=O)/C(=C/c2ccc3nccc(-c4ccncc4)c3c2)S1 | 34.7 ± 6.4
CC(C)n1c(/C=C/C(O)CC(O)CC(=O)O)c(-c2ccc(F)cc2)c2ccccc21 (stereo not given) [Fluvastatin] | 51 ± 34
Cn1nnc2c(C(N)=O)ncn2c1=O [Temozolomide] | 96.1 ± 40
CN(C)C(=O)c1ccc(S(=O)(=O)c2ccc(NC(=O)[C@@](C)(O)C(F)(F)F)c(Cl)c2)cc1 [AZD7545] | 70.3 ± 10
CC(C)(C#N)c1ccc(N2C(=O)OCc3cnc4ccc(-c5cnc6ccccc6c5)cc4c32)cc1 | 49 ± 9.6
CC(C)C[C@@H](C=O)NC(=O)[C@H](CC(C)C)NC(=O)[C@H](CC(C)C)NC(=O)OCc1ccccc1 [MG132] | 9.81 ± 0.2
C[C@@H](Oc1cc(-c2cnn(C3CCNCC3)c2)cnc1N)c1c(Cl)ccc(F)c1Cl [Crizotinib] | 37.4 ± 27
CC(C)(C)c1cnc(CSc2cnc(NC(=O)C3CCNCC3)s2)o1 [SNS032] | 14.9 ± 1.1
Nc1ccn([C@@H]2O[C@H](CO)[C@@H](O)C2(F)F)c(=O)n1 [Gemcitabine] | 14.1 ± 6.9
CCCS(=O)(=O)Nc1ccc(F)c(C(=O)c2c[nH]c3ncc(Cl)cc23)c1F [PLX4720] | 94.8 ± 13
CC[C@H](Nc1ncnc2[nH]cnc12)c1nc2cccc(F)c2c(=O)n1-c1ccccc1 [CAL101] | 84.2 ± 3.7
COc1nc(N)nc2c1ncn2[C@@H]1O[C@H](CO)[C@@H](O)[C@@H]1O [Nelarabine] | 91.7 ± 4.2
COc1cc(-n2c(=S)[nH]c3ccccc3c2=O)c(Cl)cc1Cl [Mdivi1] | 44.2 ± 5.5
CCOC(=O)c1ccc(N2NC(=O)C(=Cc3ccc([N+](=O)[O-])o3)C2=O)cc1 [PYR41] | 64.5 ± 46

System: HCC-38
Test: as above
Settings: sgRNA knockout: sgNT, 1 nM
Experimental: as §1

Compound | relative cell number
CC(C)(C#N)c1cc(Cn2cncn2)cc(C(C)(C)C#N)c1 [Anastrozole] | 106 ± 9.5
N#Cc1ccc(C(c2ccc(C#N)cc2)n2cncn2)cc1 [Letrozole] | 94.5 ± 6.1
CN1CCN(c2ccc(C(=O)Nc3n[nH]c4ccc(Cc5cc(F)cc(F)c5)cc34)c(NC3CCOCC3)c2)CC1 [Entrectinib] | 90.4 ± 11

Same assay, conditions: sgRNA knockout: sgNT, 10 nM

Compound | relative cell number
CC(C)(C#N)c1cc(Cn2cncn2)cc(C(C)(C)C#N)c1 [Anastrozole] | 116 ± 3.1
COC(=O)[C@]12CCC(C)(C)C[C@H]1[C@H]1C(=O)C=C3[C@@]4(C)C=C(C#N)C(=O)C(C)(C)[C@@H]4CC[C@@]3(C)[C@]1(C)CC2 [BardoxoloneMethyl] | 96 ± 7.2
Cc1sc2c(c1C)C(c1ccc(Cl)cc1)=N[C@@H](CC(=O)OC(C)(C)C)c1nnc(C)n1-2 [(+)-JQ1] | 104 ± 4.2
CCOC(=O)CCNc1cc(N2CCc3ccccc3CC2)nc(-c2ccccn2)n1 [GSKJ4] | 103 ± 7.2
O=C1NC(=O)/C(=C/c2ccc3nccc(-c4ccncc4)c3c2)S1 | 95.7 ± 5
N#Cc1ccc(C(c2ccc(C#N)cc2)n2cncn2)cc1 [Letrozole] | 107 ± 13
CC(C)n1c(/C=C/C(O)CC(O)CC(=O)O)c(-c2ccc(F)cc2)c2ccccc21 (stereo not given) [Fluvastatin] | 110 ± 7.6
Cn1nnc2c(C(N)=O)ncn2c1=O [Temozolomide] | 115 ± 2.3
CN(C)C(=O)c1ccc(S(=O)(=O)c2ccc(NC(=O)[C@@](C)(O)C(F)(F)F)c(Cl)c2)cc1 [AZD7545] | 105 ± 6.3
CC(C)(C#N)c1ccc(N2C(=O)OCc3cnc4ccc(-c5cnc6ccccc6c5)cc4c32)cc1 | 103 ± 28
CC(C)C[C@@H](C=O)NC(=O)[C@H](CC(C)C)NC(=O)[C@H](CC(C)C)NC(=O)OCc1ccccc1 [MG132] | 92.8 ± 13
C[C@@H](Oc1cc(-c2cnn(C3CCNCC3)c2)cnc1N)c1c(Cl)ccc(F)c1Cl [Crizotinib] | 91.2 ± 15
CN1CCN(c2ccc(C(=O)Nc3n[nH]c4ccc(Cc5cc(F)cc(F)c5)cc34)c(NC3CCOCC3)c2)CC1 [Entrectinib] | 96.6 ± 2.2
CC(C)(C)c1cnc(CSc2cnc(NC(=O)C3CCNCC3)s2)o1 [SNS032] | 100 ± 19
Nc1ccn([C@@H]2O[C@H](CO)[C@@H](O)C2(F)F)c(=O)n1 [Gemcitabine] | 20.2 ± 3.4
CCCS(=O)(=O)Nc1ccc(F)c(C(=O)c2c[nH]c3ncc(Cl)cc23)c1F [PLX4720] | 103 ± 13
CC[C@H](Nc1ncnc2[nH]cnc12)c1nc2cccc(F)c2c(=O)n1-c1ccccc1 [CAL101] | 87.5 ± 13
